Activity calls are given as the source filed them. The rule behind the calls is not given here. Bounds are passed on as bounds.

The first series is filed under the species Homo sapiens. The series is described as follows: Selectivity ratio of IC50 for human glucocorticoid receptor to IC50 for human mineralocorticoid receptor.
Conditions: not given
With `Cc1nocc1-c1ccc2[nH]c([C@@]3(Cc4ccccc4)OC(=O)N([C@H](C)c4ccc(F)cc4)C3=O)nc2c1`, the Ratio IC50 is > 40.
The same measure, in the same setting: in the case of `C[C@H](c1ccc(F)cc1)N1C(=O)O[C@](Cc2ccccc2)(c2nc3cc(N4CCOCC4)ccc3[nH]2)C1=O` it was > 40; in that of `C[C@H](c1ccc(F)cc1)N1C(=O)O[C@](Cc2ccccc2)(c2nc3cc(-c4cccnc4)ccc3[nH]2)C1=O`, > 40.

In the next series the target is T1, Mineralocorticoid receptor (Homo sapiens, UniProt P08235).
T1 sequence (P08235 whole entry): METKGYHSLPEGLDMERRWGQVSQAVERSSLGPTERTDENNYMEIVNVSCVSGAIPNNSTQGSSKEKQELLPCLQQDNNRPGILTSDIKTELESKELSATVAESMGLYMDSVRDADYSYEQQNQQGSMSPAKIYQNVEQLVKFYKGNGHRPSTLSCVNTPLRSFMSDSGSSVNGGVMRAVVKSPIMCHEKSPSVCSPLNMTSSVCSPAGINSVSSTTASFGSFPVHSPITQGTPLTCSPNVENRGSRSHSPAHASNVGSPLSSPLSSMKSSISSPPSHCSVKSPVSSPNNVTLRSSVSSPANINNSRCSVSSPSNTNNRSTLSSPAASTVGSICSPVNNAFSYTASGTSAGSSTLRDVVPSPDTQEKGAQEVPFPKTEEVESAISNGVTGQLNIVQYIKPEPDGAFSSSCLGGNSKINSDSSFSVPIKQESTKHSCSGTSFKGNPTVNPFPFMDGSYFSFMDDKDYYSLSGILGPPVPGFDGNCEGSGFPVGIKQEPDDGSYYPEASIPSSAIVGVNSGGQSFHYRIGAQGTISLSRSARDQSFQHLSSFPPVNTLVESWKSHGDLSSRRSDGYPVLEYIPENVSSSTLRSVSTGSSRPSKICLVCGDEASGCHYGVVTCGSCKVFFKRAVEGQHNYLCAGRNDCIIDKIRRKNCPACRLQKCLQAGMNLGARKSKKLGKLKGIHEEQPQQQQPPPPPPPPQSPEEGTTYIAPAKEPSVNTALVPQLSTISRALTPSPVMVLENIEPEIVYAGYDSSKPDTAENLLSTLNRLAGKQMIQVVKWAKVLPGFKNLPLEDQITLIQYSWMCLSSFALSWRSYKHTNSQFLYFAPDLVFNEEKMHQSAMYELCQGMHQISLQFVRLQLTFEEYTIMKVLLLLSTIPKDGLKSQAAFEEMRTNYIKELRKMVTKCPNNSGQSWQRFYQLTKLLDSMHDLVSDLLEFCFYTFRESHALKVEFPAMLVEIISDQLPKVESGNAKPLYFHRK
The series is described as follows: Binding affinity to mineralocorticoid receptor (unknown origin).
Conditions: not given
Regarding `C[C@H](c1ccc(F)cc1)N1C(=O)O[C@](Cc2ccccc2)(c2nc3cc(Cl)ccc3[nH]2)C1=O`, the Ki (in general, a measure of affinity in units of concentration, obtained from inhibition or displacement) was 0.002 µM.

Test system in another series: not listed separately
The series is described as follows: Plasma protein binding in human. Type of series: ADME, cell-free. Particulars: read-out: PPB.
Regarding `C[C@H](c1ccc(F)cc1)N1C(=O)O[C@](Cc2ccccc2)(c2nc3cc(Cl)ccc3[nH]2)C1=O`, the fraction unbound is < 0.01.
Take `C[C@H](c1ccc(F)cc1)N1C(=O)O[C@](Cc2ccccc2)(c2nc3cc(C(F)(F)F)ccc3[nH]2)C1=O`: the fraction unbound is < 0.01.
The same measure, in the same setting: in the case of `C[C@H](c1ccc(F)cc1)N1C(=O)O[C@](Cc2ccccc2)(c2nc3cc(-c4cccnc4)ccc3[nH]2)C1=O` it was < 0.01.

A further series relates to Rattus norvegicus. As to the kind of experiment: Natriuretic activity in po dosed WKY rat measured over 6 hrs. Type of series: functional, organism-based.
Conditions: not given
With `C[C@H](c1ccc(F)cc1)N1C(=O)O[C@](Cc2ccccc2)(c2nc3cc(Cl)ccc3[nH]2)C1=O`, the result was Active.
For the compound `C[C@H](c1ccc(F)cc1)N1C(=O)O[C@](Cc2ccccc2)(c2nc3cc(NS(C)(=O)=O)ccc3[nH]2)C1=O`, the outcome was Active.
On to `C[C@H](c1ccc(F)cc1)N1C(=O)O[C@](Cc2ccccc2)(c2nc3cc(N4CCOCC4)ccc3[nH]2)C1=O`, for which the Activity result is “Dose-dependent effect”.
In the case of `C[C@H](c1ccc(F)cc1)N1C(=O)O[C@](Cc2ccccc2)(c2nc3cc(-c4cccnc4)ccc3[nH]2)C1=O`, the outcome was Active.

For the next series, the species on record is Homo sapiens. As to the kind of experiment: Selectivity ratio of IC50 for human progesterone receptor beta to IC50 for human mineralocorticoid receptor.
Conditions: not given
Take `Cc1nocc1-c1ccc2[nH]c([C@@]3(Cc4ccccc4)OC(=O)N([C@H](C)c4ccc(F)cc4)C3=O)nc2c1`: the Ratio IC50 is > 40.
On to `C[C@H](c1ccc(F)cc1)N1C(=O)O[C@](Cc2ccccc2)(c2nc3cc(N4CCOCC4)ccc3[nH]2)C1=O`, for which the Ratio IC50 is > 40.
The same measure, in the same setting: next, `C[C@H](c1ccc(F)cc1)N1C(=O)O[C@](Cc2ccccc2)(c2nc3cc(-c4cccnc4)ccc3[nH]2)C1=O`: > 40.

Test system in another series: not listed separately
As to the kind of experiment: Plasma protein binding in rat. Particulars: read-out: PPB. Type of series: ADME, cell-free.
`C[C@H](c1ccc(F)cc1)N1C(=O)O[C@](Cc2ccccc2)(c2nc3cc(Cl)ccc3[nH]2)C1=O`: the fraction unbound was < 0.01.
Regarding `C[C@H](c1ccc(F)cc1)N1C(=O)O[C@](Cc2ccccc2)(c2nc3cc(C(F)(F)F)ccc3[nH]2)C1=O`, the fraction unbound is < 0.01.
Consider `C[C@H](c1ccc(F)cc1)N1C(=O)O[C@](Cc2ccccc2)(c2nc3cc(-c4cccnc4)ccc3[nH]2)C1=O`, for which the fraction unbound was < 0.01.

The species entered for another series is Homo sapiens. As to the kind of experiment: Selectivity ratio of IC50 for human estrogen receptor alpha to IC50 for human mineralocorticoid receptor.
Conditions: not given
For the compound `Cc1nocc1-c1ccc2[nH]c([C@@]3(Cc4ccccc4)OC(=O)N([C@H](C)c4ccc(F)cc4)C3=O)nc2c1`, the Ratio IC50 is > 40.
The same measure, in the same setting: in the case of `C[C@H](c1ccc(F)cc1)N1C(=O)O[C@](Cc2ccccc2)(c2nc3cc(N4CCOCC4)ccc3[nH]2)C1=O` it was > 40; in that of `C[C@H](c1ccc(F)cc1)N1C(=O)O[C@](Cc2ccccc2)(c2nc3cc(-c4cccnc4)ccc3[nH]2)C1=O`, > 40.

A further series concerns the target T2, Glucocorticoid receptor (Homo sapiens, UniProt P04150).
T2 sequence (P04150 whole entry): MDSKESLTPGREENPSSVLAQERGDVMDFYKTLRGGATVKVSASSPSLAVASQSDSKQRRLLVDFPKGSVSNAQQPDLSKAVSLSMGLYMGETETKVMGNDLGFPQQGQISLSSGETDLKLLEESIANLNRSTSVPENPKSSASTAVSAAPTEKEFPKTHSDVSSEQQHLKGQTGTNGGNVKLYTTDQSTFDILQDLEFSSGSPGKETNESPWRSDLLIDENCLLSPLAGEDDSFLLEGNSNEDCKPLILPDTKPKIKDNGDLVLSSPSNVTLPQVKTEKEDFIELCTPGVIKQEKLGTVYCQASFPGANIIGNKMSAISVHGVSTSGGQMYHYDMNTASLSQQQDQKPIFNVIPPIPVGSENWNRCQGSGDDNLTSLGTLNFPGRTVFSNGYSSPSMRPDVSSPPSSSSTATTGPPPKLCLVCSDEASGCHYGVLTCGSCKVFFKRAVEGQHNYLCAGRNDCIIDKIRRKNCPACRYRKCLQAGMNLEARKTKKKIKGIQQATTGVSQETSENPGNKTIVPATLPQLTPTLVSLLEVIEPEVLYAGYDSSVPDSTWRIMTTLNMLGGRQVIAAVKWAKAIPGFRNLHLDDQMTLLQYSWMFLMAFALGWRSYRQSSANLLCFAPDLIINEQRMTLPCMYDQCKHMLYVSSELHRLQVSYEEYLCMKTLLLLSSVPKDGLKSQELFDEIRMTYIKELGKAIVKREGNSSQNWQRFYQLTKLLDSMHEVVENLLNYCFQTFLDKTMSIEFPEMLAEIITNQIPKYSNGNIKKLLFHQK
As to the kind of experiment: Antagonist activity at human glucocorticoid receptor expressed in CHOK1 cells assessed as inhibition of dexamethasone-induced protein interaction with steroid receptor co-activator peptide after overnight incubation by beta-galactosidase reporter gene assay. Type of series: cell-based, CHO-K1.
Conditions: not given
A general note: Reporter assays use an easily measured gene product as a stand-in for the process of interest.
`C[C@H](c1ccc(F)cc1)N1C(=O)O[C@](Cc2ccccc2)(c2nc3c(NS(C)(=O)=O)cccc3[nH]2)C1=O`: the IC50 (in general, the midpoint of a concentration-inhibition curve) was 17 µM.
Still for that read-out and setting: next, `C[C@H](c1ccc(F)cc1)N1C(=O)O[C@](Cc2ccccc2)(c2nc3cc(Cl)ccc3[nH]2)C1=O`: 3.8 µM; `Cc1nocc1-c1ccc2[nH]c([C@@]3(Cc4ccccc4)OC(=O)N([C@H](C)c4ccc(F)cc4)C3=O)nc2c1`: 2.9 µM.
`C[C@H](c1ccc(F)cc1)N1C(=O)O[C@](Cc2ccccc2)(c2nc3cc(NS(C)(=O)=O)ccc3[nH]2)C1=O`: the IC50 is > 20 µM.
As to `C[C@H](c1ccc(F)cc1)N1C(=O)O[C@](Cc2ccccc2)(c2nc3cc(C(F)(F)F)ccc3[nH]2)C1=O`, the IC50 is 3.4 µM.
`C[C@H](c1ccc(F)cc1)N1C(=O)O[C@](Cc2ccccc2)(c2nc3cc(-c4cc[nH]n4)ccc3[nH]2)C1=O`: the IC50 was found to be 3 µM.
Still for that read-out and setting: in the case of `C[C@H](c1ccc(F)cc1)N1C(=O)O[C@](Cc2ccccc2)(c2nc3cc(N4CCOCC4)ccc3[nH]2)C1=O` it was 4.9 µM; in that of `C[C@H](c1ccc(F)cc1)N1C(=O)O[C@](Cc2ccccc2)(c2nc3cc(-c4cccnc4)ccc3[nH]2)C1=O`, 3.1 µM.

The species entered for a further series is Homo sapiens. As to the kind of experiment: Selectivity ratio of IC50 for human androgen receptor to IC50 for human mineralocorticoid receptor.
Conditions: not given
With `Cc1nocc1-c1ccc2[nH]c([C@@]3(Cc4ccccc4)OC(=O)N([C@H](C)c4ccc(F)cc4)C3=O)nc2c1`, the Ratio IC50 amounted to 90.
As to `C[C@H](c1ccc(F)cc1)N1C(=O)O[C@](Cc2ccccc2)(c2nc3cc(N4CCOCC4)ccc3[nH]2)C1=O`, the Ratio IC50 was > 40.
`C[C@H](c1ccc(F)cc1)N1C(=O)O[C@](Cc2ccccc2)(c2nc3cc(-c4cccnc4)ccc3[nH]2)C1=O`: the Ratio IC50 amounted to 110.

The species named for a further series is Homo sapiens. As to the kind of experiment: Selectivity ratio of IC50 for human estrogen receptor beta to IC50 for human mineralocorticoid receptor.
Conditions: not given
For `Cc1nocc1-c1ccc2[nH]c([C@@]3(Cc4ccccc4)OC(=O)N([C@H](C)c4ccc(F)cc4)C3=O)nc2c1`, the Ratio IC50 is > 40.
Consider `C[C@H](c1ccc(F)cc1)N1C(=O)O[C@](Cc2ccccc2)(c2nc3cc(N4CCOCC4)ccc3[nH]2)C1=O`, for which the Ratio IC50 is > 40.
As to `C[C@H](c1ccc(F)cc1)N1C(=O)O[C@](Cc2ccccc2)(c2nc3cc(-c4cccnc4)ccc3[nH]2)C1=O`, the Ratio IC50 was > 40.
